Common to all, as to format: in vivo
One experiment concerns DIGSA. Briefly: Post-emergence biological efficacy. Conditions: Digitaria sanguinalis, 312 h, evaluated after 13 days, read-out: damage to plant (100=total damage to plant; 0=no damage to plant). As for the experimental part: (§1) Seeds of weeds and/or crops were sown in standard soil in pots. After cultivation for 14 days under controlled conditions in a glasshouse (at 24/19° C., day/night; 16 hours light), the plants were sprayed with an aqueous spray solution derived from the formulation of the technical active ingredient in a small amount of acetone and a special solvent and emulsifier mixture referred to as IF50 (11.12% Emulsogen EL360 TM+44.44% N-methylpyrrolidone+44.44% Dowanol DPM glycol ether), to create a 50g/l solution which was then diluted using 0.2% Genapol XO80 as diluent to give the desired final dose of test compound.
(§2) The test plants were then grown under controlled conditions in the glasshouse (at 24/18° C., day/night; 15 hours light; 50% humidity)and watered twice daily. After 13 days the test was evaluated (100=total damage to plant; 0=no damage to plant).

Another experiment deals with ELEIN. Briefly: Post-emergence biological efficacy. The settings on record: 312 h, evaluated after 13 days, read-out: damage to plant (100=total damage to plant; 0=no damage to plant). As for the experimental part: as §1, §2
Experiment [1] has as its system SETFA. Briefly: Post-emergence biological efficacy. Conditions: Setaria faberi, 312 h, evaluated after 13 days, read-out: damage to plant (100=total damage to plant; 0=no damage to plant). How it is done:
as §1, §2

The subject of experiment [2] is EPHHL. Briefly: Post-emergence biological efficacy. Conditions: Euphorbia heterophylla, 312 h, evaluated after 13 days, read-out: damage to plant (100=total damage to plant; 0=no damage to plant). How it is done:
as §1, §2

The subject of experiment [3] is AMAPA. Briefly: Post-emergence biological efficacy. Conditions: Amaranthus palmeri, 312 h, evaluated after 13 days, read-out: damage to plant (100=total damage to plant; 0=no damage to plant). How it is done: as §1, §2
Experiment [4] concerns ECHCG. Briefly: Post-emergence biological efficacy. The settings on record: Echinochloa crus-galli, 312 h, evaluated after 13 days, read-out: damage to plant (100=total damage to plant; 0=no damage to plant). As for the experimental part: as §1, §2
The subject of experiment [5] is IPOHE. Briefly: Post-emergence biological efficacy. Conditions: Ipomoea hederacea, 312 h, evaluated after 13 days, read-out: damage to plant (100=total damage to plant; 0=no damage to plant). How it is done:
as §1, §2

Experiment [6] deals with LOLPE. Briefly: Post-emergence biological efficacy. The settings on record: Lolium perenne, 312 h, evaluated after 13 days, read-out: damage to plant (100=total damage to plant; 0=no damage to plant). How it is done: as §1, §2
The next experiment relates to CHEAL. Briefly: Post-emergence biological efficacy. Conditions: Chenopodium album, 312 h, evaluated after 13 days, read-out: damage to plant (100=total damage to plant; 0=no damage to plant). As for the experimental part:
as §1, §2

The subject of experiment [7] is SETFA. Briefly: Pre-emergence biological efficacy. The settings on record: Setaria faberi, 312 h, evaluated after 13 days, read-out: damage to plant (100=total damage to plant; 0=no damage to plant). As for the experimental part: as §1, with “one day” for “14 days”
(§3) The test plants were then grown under controlled conditions in the glasshouse (at 24/18° C., day/night; 15 hours light; 50% humidity) and watered twice daily. After 13 days the test was evaluated (100=total damage to plant; 0=no damage to plant).

Experiment [8] deals with EPHHL. Briefly: Pre-emergence biological efficacy. Conditions: Euphorbia heterophylla, 312 h, evaluated after 13 days, read-out: damage to plant (100=total damage to plant; 0=no damage to plant). How it is done:
as §1, with “one day” for “14 days”
as §3

In experiment [9] the test system is AMAPA. Briefly: Pre-emergence biological efficacy. The settings on record: Amaranthus palmeri, 312 h, evaluated after 13 days, read-out: damage to plant (100=total damage to plant; 0=no damage to plant). As for the experimental part:
as §1, with “one day” for “14 days”
as §3

For experiment [10], the system named is ECHCG. Briefly: Pre-emergence biological efficacy. Conditions: Echinochloa crus-galli, 312 h, evaluated after 13 days, read-out: damage to plant (100=total damage to plant; 0=no damage to plant). As for the experimental part: as §1, with “one day” for “14 days”
as §3

Experiment [11] deals with IPOHE. Briefly: Pre-emergence biological efficacy. Conditions: Ipomoea hederacea, 312 h, evaluated after 13 days, read-out: damage to plant (100=total damage to plant; 0=no damage to plant). How it is done: as §1, with “one day” for “14 days”
as §3

In experiment [12] the test system is LOLPE. Briefly: Pre-emergence biological efficacy. The settings on record: Lolium perenne, 312 h, evaluated after 13 days, read-out: damage to plant (100=total damage to plant; 0=no damage to plant). How it is done:
as §1, with “one day” for “14 days”
as §3

Regarding `CCOC(=O)C1(C)CC(c2cc(-c3ccc(C(F)(F)F)cc3Cl)c(F)cc2Cl)=NO1` (stereo not drawn) [Compound 1-7, Ethyl 3-[2-chloro-5-[2-chloro-4-(trifluoromethyl)phenyl]-4-fluoro-phenyl]-5-methyl-4H-isoxazole-5-carboxylate], the pest or weed control at 250 g/ha was 40% with DIGSA; 70% in the experiment with ELEIN; 60% in the experiment with SETFA [1]; 90% in the experiment on EPHHL [2]; 90% in the experiment on AMAPA [3]; 30% in the experiment with ECHCG [4]. The pest or weed control at 250 g/ha in the experiment with IPOHE [5] was found to be 90%; with LOLPE [6] it was 10%; with CHEAL, 100%; in the experiment on SETFA [7], 0%; in the experiment on EPHHL [8] it was 0%; in the experiment on AMAPA [9] it was 30%. In addition, the pest or weed control at 250 g/ha with ECHCG [10], in the experiment on IPOHE [11] and with LOLPE [12] was 0% throughout.
Consider `CCOC(=O)C1(C)CC(c2cc(-c3ccccc3Cl)c(F)cc2Cl)=NO1` (stereo not drawn) [Compound 1-19, Ethyl 3-[2-chloro-5-(2-chlorophenyl)-4-fluoro-phenyl]-5-methyl-4H-isoxazole-5-carboxylate], for which the pest or weed control at 250 g/ha was 20% with DIGSA; 20% in the experiment with ELEIN; 40% with SETFA [1]; 90% with EPHHL [2]; 90% in the experiment with AMAPA [3]; 20% in the experiment with ECHCG [4]. Further, the pest or weed control at 250 g/ha was 80% with IPOHE [5]; 10% in the experiment with LOLPE [6]; 90% in the experiment with CHEAL; 0% with SETFA [7]; 0% in the experiment with EPHHL [8]; 0% with AMAPA [9]. The pest or weed control at 250 g/ha in the experiment on ECHCG [10], in the experiment on IPOHE [11] and in the experiment on LOLPE [12] was 0% in each case.
As for `CCOC(=O)C1(C)CC(c2cc(-c3ccc(C)cc3Cl)c(F)cc2Cl)=NO1` (stereo not drawn) [Compound 1-31, Ethyl 3-[2-chloro-5-(2-chloro-4-methyl-phenyl)-4-fluoro-phenyl]-5-methyl-4H-isoxazole-5-carboxylate], the pest or weed control at 250 g/ha in the experiment on DIGSA is 30%; in the experiment on ELEIN it was 70%; in the experiment on SETFA [1], 50%; in the experiment on EPHHL [2] it was 80%; in the experiment on AMAPA [3], 100%; in the experiment with ECHCG [4] it was 30%. For the same compound, the pest or weed control at 250 g/ha in the experiment with IPOHE [5] came out at 90%; in the experiment on LOLPE [6], 20%; in the experiment with CHEAL, 100%; with SETFA [7] it was 0%; with EPHHL [8] it was 10%; in the experiment on AMAPA [9], 30%. The pest or weed control at 250 g/ha in the experiment on ECHCG [10], with IPOHE [11] and in the experiment on LOLPE [12] was 0% in each case.
Regarding `CCOC(=O)C1(C)CC(c2cc(-c3cccc(C(F)(F)F)n3)c(F)cc2Cl)=NO1` (stereo not drawn) [Compound 1-43, Ethyl 3-[2-chloro-4-fluoro-5-[6-(trifluoromethyl)-2-pyridyl]phenyl]-5-methyl-4H-isoxazole-5-carboxylate], the pest or weed control at 250 g/ha in the experiment with DIGSA was 30%; in the experiment on ELEIN, 70%; in the experiment on SETFA [1] it was 90%; in the experiment on EPHHL [2], 20%; in the experiment on AMAPA [3], 80%; in the experiment with ECHCG [4], 20%. Further, the pest or weed control at 250 g/ha in the experiment on IPOHE [5] is 60%; in the experiment on LOLPE [6] it was 0%; with CHEAL, 80%; in the experiment on SETFA [7] it was 0%; in the experiment on EPHHL [8], 0%; in the experiment on AMAPA [9], 20%. Besides, the pest or weed control at 250 g/ha in the experiment on ECHCG [10], with IPOHE [11] and with LOLPE [12] was 0% throughout.
As to `CCOC(=O)C1(C)CC(c2cc(-c3ccnc(Cl)c3Cl)c(F)cc2Cl)=NO1` (stereo not drawn) [Compound 1-535, Ethyl 3-[2-chloro-5-(2,3-dichloro-4-pyridyl)-4-fluoro-phenyl]-5-methyl-4H-isoxazole-5-carboxylate], the pest or weed control at 250 g/ha in the experiment on DIGSA stood at 90%; with ELEIN it was 80%; with SETFA [1] it was 100%; in the experiment on EPHHL [2], 100%; in the experiment with AMAPA [3] it was 100%; in the experiment on ECHCG [4], 80%. Also, the pest or weed control at 250 g/ha in the experiment on IPOHE [5] is 100%; in the experiment on LOLPE [6] it was 50%; in the experiment on CHEAL, 100%; in the experiment with SETFA [7] it was 40%; in the experiment with EPHHL [8] it was 0%; in the experiment on ECHCG [10], 10%. Moreover, the figures for the pest or weed control at 250 g/ha in the experiment with IPOHE [11] and with LOLPE [12] were 40% and 0%, respectively.
For the compound `CCOC(=O)C1(C)CC(c2cc(-c3ccc(OC)nn3)c(F)cc2Cl)=NO1` (stereo not drawn) [Compound 1-703, Ethyl 3-[2-chloro-4-fluoro-5-(6-methoxypyridazin-3-yl)phenyl]-5-methyl-4H-isoxazole-5-carboxylate], the pest or weed control at 250 g/ha stood at 70% in the experiment on DIGSA; 70% in the experiment on ELEIN; 70% with SETFA [1]; 100% in the experiment on EPHHL [2]; 100% with AMAPA [3]; 80% in the experiment on ECHCG [4]. In addition, the pest or weed control at 250 g/ha was 60% in the experiment with IPOHE [5]; 70% in the experiment on LOLPE [6]; 100% in the experiment on CHEAL; 0% with SETFA [7]; 0% in the experiment with EPHHL [8]; 0% in the experiment on ECHCG [10]. For the same compound, the pest or weed control at 250 g/ha in the experiment on IPOHE [11] and in the experiment with LOLPE [12] was 0% throughout.
Consider `CCOC(=O)C1(C)CC(c2cc(-c3cnc(C(F)(F)F)cn3)c(F)cc2Cl)=NO1` (stereo not drawn) [Compound 1-751, Ethyl 3-[2-chloro-4-fluoro-5-[5-(trifluoromethyl)pyrazin-2-yl]phenyl]-5-methyl-4H-isoxazole-5-carboxylate], for which the pest or weed control at 250 g/ha with DIGSA, in the experiment on ELEIN, in the experiment on SETFA [1], with EPHHL [2], in the experiment on AMAPA [3] and in the experiment on ECHCG [4] was 100% each time. Also, the pest or weed control at 250 g/ha with IPOHE [5] turned out to be 100%; in the experiment on LOLPE [6], 70%; with CHEAL, 100%; in the experiment with SETFA [7] it was 40%; in the experiment with AMAPA [9] it was 20%; with ECHCG [10], 50%. The pest or weed control at 250 g/ha in the experiment with IPOHE [11] is 50%; in the experiment on LOLPE [12], 20%.
With `CCOC(=O)C1(C)CC(c2cc(-c3cc(C(F)(F)F)cnc3Br)c(F)cc2Cl)=NO1` (stereo not drawn) [Compound 1-835, Ethyl 3-[5-[2-bromo-5-(trifluoromethyl)-3-pyridyl]-2-chloro-4-fluoro-phenyl]-5-methyl-4H-isoxazole-5-carboxylate], the pest or weed control at 250 g/ha was 0% with SETFA [7]; 0% in the experiment on EPHHL [8]; 70% in the experiment with AMAPA [9]; 0% in the experiment on ECHCG [10]; 10% in the experiment with IPOHE [11]; 0% in the experiment on LOLPE [12].

These data come from patent US20240124432A1, “HERBICIDAL COMPOUNDS” (SYNGENTA CROP PROTECTION AG, priority 2020, published 2024).
